Inconclusive results and toxic doses are left out. Cut-off read from the data, not from the text of the source: active = T/C of 150% or more; inactive = T/C below 125%.
Tested on: L1210 leukemia ip in BDF1 mice, survival T/C
Assay: NCI In Vivo Anticancer Drug Screen. Data for tumor model L1210 Leukemia (intraperitoneal) in B6D2F1 (BDF1) mice
Details: endpoint: mean survival time, higher = longer survival
Outline: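 Ratio derived from survival: compound-dosed mice over vehicle-dosed mice, all bearing a transplantable tumor.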

[1] = dose: 100.0 mg/kg/injection, schedule: Q04DX002 (ip), vehicle: Klucel (hydroxypropylcellulose) (HPC)
[2] = dose: 200.0 mg/kg/injection, schedule: Q04DX002 (ip), vehicle: Klucel (hydroxypropylcellulose) (HPC)
[3] = dose: 400.0 mg/kg/injection, schedule: Q04DX002 (ip), vehicle: Klucel (hydroxypropylcellulose) (HPC)
[4] = dose: 100.0 mg/kg/injection, schedule: Q01DX001 (ip), vehicle: Klucel (hydroxypropylcellulose) (HPC)
[5] = dose: 200.0 mg/kg/injection, schedule: Q01DX001 (ip), vehicle: Klucel (hydroxypropylcellulose) (HPC)
[6] = dose: 12.5 mg/kg/injection, schedule: Q04DX003 (ip), vehicle: Klucel (hydroxypropylcellulose) (HPC)
[7] = dose: 25.0 mg/kg/injection, schedule: Q01DX009 (ip), vehicle: Klucel (hydroxypropylcellulose) (HPC)
[8] = dose: 25.0 mg/kg/injection, schedule: Q04DX003 (ip), vehicle: Klucel (hydroxypropylcellulose) (HPC)
[9] = dose: 50.0 mg/kg/injection, schedule: Q01DX009 (ip), vehicle: Klucel (hydroxypropylcellulose) (HPC)
[10] = dose: 50.0 mg/kg/injection, schedule: Q04DX003 (ip), vehicle: Klucel (hydroxypropylcellulose) (HPC)
[11] = dose: 100.0 mg/kg/injection, schedule: Q04DX003 (ip), vehicle: Klucel (hydroxypropylcellulose) (HPC)
[12] = dose: 100.0 mg/kg/injection, schedule: Q01DX009 (ip), vehicle: Klucel (hydroxypropylcellulose) (HPC)
[13] = dose: 200.0 mg/kg/injection, schedule: Q01DX009 (ip), vehicle: Klucel (hydroxypropylcellulose) (HPC)
[14] = dose: 50.0 mg/kg/injection, schedule: Q01DX001 (ip), vehicle: saline
[15] = dose: 100.0 mg/kg/injection, schedule: Q01DX001 (ip), vehicle: saline
[16] = dose: 200.0 mg/kg/injection, schedule: Q01DX001 (ip), vehicle: saline

Measured: T/C

CC(=O)N(Cc1cccc([N+](=O)[O-])c1)c1ccc(C(=O)O)cc1
inactive: dose: 100.0 mg/kg/injection, schedule: Q01DX001 (ip), vehicle: saline with Tween-80 98 % of control | dose: 200.0 mg/kg/injection, schedule: Q01DX001 (ip), vehicle: saline with Tween-80 119 % of control | dose: 400.0 mg/kg/injection, schedule: Q01DX001 (ip), vehicle: saline with Tween-80 93 % of control

NC(=S)N/N=C/c1cc(Br)cc(Br)c1O
inactive: [1] 95 % of control | [2] 91 % of control | [3] 100 % of control

Cc1nc2c(Cl)cc(Cl)cc2c2c1-c1ccccc1C2=O
inactive: dose: 100.0 mg/kg/injection, schedule: Q04DX003 (ip), vehicle: acetone 89 % of control | dose: 200.0 mg/kg/injection, schedule: Q04DX003 (ip), vehicle: acetone 89 % of control | dose: 400.0 mg/kg/injection, schedule: Q04DX003 (ip), vehicle: acetone 97 % of control

C=CCc1ccc(OC(=O)Nc2ccccc2)c(OC)c1
inactive: [1] 87 % of control | [2] 87 % of control | [3] 87 % of control

O=C(SCO)c1ccccc1
inactive: dose: 100.0 mg/kg/injection, schedule: Q01DX009 (sc), vehicle: olive oil, sesame oil, peanut oil 108 % of control | dose: 100.0 mg/kg/injection, schedule: Q04DX003 (sc), vehicle: olive oil, sesame oil, peanut oil 107 % of control | dose: 200.0 mg/kg/injection, schedule: Q01DX009 (sc), vehicle: olive oil, sesame oil, peanut oil 96 % of control | dose: 200.0 mg/kg/injection, schedule: Q04DX003 (sc), vehicle: olive oil, sesame oil, peanut oil 96 % of control | dose: 400.0 mg/kg/injection, schedule: Q01DX009 (sc), vehicle: olive oil, sesame oil, peanut oil 103 % of control | dose: 400.0 mg/kg/injection, schedule: Q04DX003 (sc), vehicle: olive oil, sesame oil, peanut oil 93 % of control

C/C=C/CC1(CCCC)C(=O)NC(=O)NC1=O
inactive: dose: 75.0 mg/kg/injection, schedule: Q01DX001 (ip), vehicle: saline 106 % of control | dose: 150.0 mg/kg/injection, schedule: Q01DX001 (ip), vehicle: saline 102 % of control

CC(C)CCCC(C)C1CCC2C3CCC4=CC5(CCC4(C)C3CCC12C)SCCS5 (configuration not stated)
inactive: dose: 50.0 mg/kg/injection, schedule: Q01DX009 (ip), vehicle: saline with Tween-80 98 % of control | dose: 100.0 mg/kg/injection, schedule: Q01DX009 (ip), vehicle: saline with Tween-80 101 % of control | dose: 200.0 mg/kg/injection, schedule: Q01DX009 (ip), vehicle: saline with Tween-80 95 % of control

CC12CCCCC1C(C(=O)O)CC2 (configuration not stated)
inactive: dose: 100.0 mg/kg/injection, schedule: Q04DX002 (ip), vehicle: saline with Tween-80 105 % of control | dose: 200.0 mg/kg/injection, schedule: Q04DX002 (ip), vehicle: saline with Tween-80 105 % of control | dose: 400.0 mg/kg/injection, schedule: Q04DX002 (ip), vehicle: saline with Tween-80 92 % of control

CCN(CC)C(=O)CBr
inactive: dose: 50.0 mg/kg/injection, schedule: Q01DX001 (ip), vehicle: Klucel (hydroxypropylcellulose) (HPC) 99 % of control | [4] 99 % of control | [5] 97 % of control

CC(C)=C1C2C=CC1C1C(=O)OC(=O)C21 (configuration not stated)
inactive: [6] 107 % of control | [7] 98 % of control | [8] 96 % of control | [9] 95 % of control | [10] 103 % of control | [4] 94 % of control | [11] 100 % of control

CN=C(N)c1cccc(NC(=O)c2ccc(C(=O)Nc3cccc(C(N)=NC)c3)cc2)c1
inactive: dose: 15.0 mg/kg/injection, schedule: Q01DX Z (ip), vehicle: saline 109 % of control | dose: 30.0 mg/kg/injection, schedule: Q01DX Z (ip), vehicle: saline 93 % of control

CC(=O)Nc1ccc(/C=C/c2cc[n+](C)cc2)cc1
inactive: dose: 100.0 mg/kg/injection, schedule: Q04DX003 (ip), vehicle: saline with Tween-80 97 % of control | dose: 200.0 mg/kg/injection, schedule: Q04DX003 (ip), vehicle: saline with Tween-80 111 % of control | dose: 400.0 mg/kg/injection, schedule: Q04DX003 (ip), vehicle: saline with Tween-80 102 % of control

Clc1ccc(N=Cc2ccc3c(c2)OCO3)c(Cl)c1
inactive: [12] 94 % of control | [13] 93 % of control | dose: 400.0 mg/kg/injection, schedule: Q01DX009 (ip), vehicle: Klucel (hydroxypropylcellulose) (HPC) 96 % of control

O=[N+]([O-])C12CCC(c3ccccc31)c1ccccc12
inactive: dose: 100.0 mg/kg/injection, schedule: Q04DX002 (ip), vehicle: gum acacia 103 % of control | dose: 200.0 mg/kg/injection, schedule: Q04DX002 (ip), vehicle: gum acacia 101 % of control | dose: 400.0 mg/kg/injection, schedule: Q04DX002 (ip), vehicle: gum acacia 92 % of control

Cc1ccc(S(=O)(=O)OC2CCCC3CC(=O)CCC32C)cc1 (configuration not stated)
inactive: [14] 101 % of control | dose: 100.0 mg/kg/injection, schedule: Q01DX001 (ip), vehicle: carboxymethylcellulose (CMC) 103 % of control | [15] 101 % of control | dose: 200.0 mg/kg/injection, schedule: Q01DX001 (ip), vehicle: carboxymethylcellulose (CMC) 105 % of control | [16] 95 % of control | dose: 400.0 mg/kg/injection, schedule: Q01DX001 (ip), vehicle: carboxymethylcellulose (CMC) 103 % of control | dose: 400.0 mg/kg/injection, schedule: Q01DX001 (ip), vehicle: saline 98 % of control

O=C(O)c1ccc(Cl)o1
inactive: [12] 97 % of control | [13] 98 % of control

COc1cccc(N(CCO)CCO)c1OC
inactive: dose: 3.75 mg/kg/injection, schedule: Q01DX Z (ip), vehicle: saline 93 % of control | dose: 7.5 mg/kg/injection, schedule: Q01DX Z (ip), vehicle: saline 93 % of control | dose: 15.5 mg/kg/injection, schedule: Q01DX Z (ip), vehicle: saline 97 % of control | dose: 31.0 mg/kg/injection, schedule: Q01DX Z (ip), vehicle: saline 97 % of control | dose: 62.5 mg/kg/injection, schedule: Q01DX Z (ip), vehicle: saline 96 % of control | dose: 125.0 mg/kg/injection, schedule: Q01DX Z (ip), vehicle: saline 101 % of control | dose: 250.0 mg/kg/injection, schedule: Q01DX Z (ip), vehicle: saline 97 % of control | dose: 500.0 mg/kg/injection, schedule: Q01DX Z (ip), vehicle: saline 101 % of control

Clc1ccc(SSC(Cl)(Cl)Cl)cc1
inactive: [7] 98 % of control | [9] 88 % of control | [12] 93 % of control

ON1CCCC1
inactive: dose: 100.0 mg/kg/injection, schedule: Q01DX009 (ip), vehicle: water 95 % of control | dose: 100.0 mg/kg/injection, schedule: Q04DX003 (ip), vehicle: water 92 % of control | dose: 200.0 mg/kg/injection, schedule: Q01DX009 (ip), vehicle: water 101 % of control | dose: 200.0 mg/kg/injection, schedule: Q04DX003 (ip), vehicle: water 92 % of control | dose: 400.0 mg/kg/injection, schedule: Q04DX003 (ip), vehicle: water 92 % of control

CCOC(=O)c1[nH]c(C)c(/C=C/C(=O)O)c1C
inactive: [8] 98 % of control | [10] 95 % of control | [4] 106 % of control | [11] 101 % of control | [5] 98 % of control | dose: 400.0 mg/kg/injection, schedule: Q01DX001 (ip), vehicle: Klucel (hydroxypropylcellulose) (HPC) 98 % of control

CCC[CH2][Pb]([CH2]CCC)([CH2]CCC)[n]1ccnc1
inactive: dose: 1.5 mg/kg/injection, schedule: Q01DX009 (ip), vehicle: Klucel (hydroxypropylcellulose) (HPC) 95 % of control | dose: 3.0 mg/kg/injection, schedule: Q01DX009 (ip), vehicle: Klucel (hydroxypropylcellulose) (HPC) 96 % of control | dose: 6.0 mg/kg/injection, schedule: Q01DX009 (ip), vehicle: Klucel (hydroxypropylcellulose) (HPC) 90 % of control | [6] 97 % of control | [8] 97 % of control | [14] 98 % of control | [10] 86 % of control | [15] 95 % of control | [16] 93 % of control

From PubChem BioAssay AID248 (DTP/NCI, 2004)
